Experimental data taken from patent US10004711B2, “Methods and compositions comprising 10-hydroxy-2-decenoic acid” (DSM IP ASSETS B.V., priority 2014, dated 2018).

Assays:
[1] = tested on: 19-20 month-old male rats; assay: Elevated plus-maze, rats fed QBA alone or QBA+DHA; assay type: in vivo, rat; details: QBA 0, DHA 0.07% weight of diet
Description: Rats were fed QBA and subjected to an elevated plus-maze. The elevated plus-maze was elevated ˜85 cm above the floor and consisted of two open and two closed arms of the same size (50×10 cm). The closed arms were surrounded by walls 40 cm high, and the arms were constructed of black acrylic slabs that radiated from a central platform (10×10 cm) to form a plus sign. Each rat was placed in the central platform facing one of the open arms, and its behavior was recorded during a 5-min testing period with video capture software. More time spent in the open arms is an indication of reduced anxiety-like state. Rats were tested at 18 months old (N=11-13 per group).
The dose-response characteristics of 10-Hydroxy-2-decenoic acid's (QBA's) in combination with DHA for potential brain health benefits during aging were assessed for mood in 19-20 month-old male rats (N=11-14 per group). Rats were fed QBA alone or QBA+DHA and subjected to an elevated plus-maze.

[2] = Body weight of aged male rats fed QBA and/or DHA (Example 8); assay type: in vivo, rat; details: DHA 0.07% weight of diet
Description: Aged male rats were fed 10-Hydroxy-2-decenoic acid (QBA) for approximately […] from 12-months to 20-months of age and the weight of rats was recorded.

[3] = Weight after Barnes maze psychological stress (Example 9); assay type: in vivo, rat; details: for % Change (Weight after Barnes maze): DHA 0.07% weight of diet
Description: Aged male rats were fed 10-Hydroxy-2-decenoic acid (QBA) for approximately […] from 12-months to 20-months of age and the weight of rats was recorded (N=11-14 per group). During the last month of QBA feeding animals were subjected to the psychological stress of the Barnes maze.

[4] = Body weight of aged male rats fed QBA and/or DHA (Example 8); assay type: in vivo, rat; details: DHA 0.07% weight of diet; remark: listed apart in the source
[5] = tested on: RAW264.7 mouse macrophage cell line; assay: IL-1β levels after LPS stimulation; assay type: cell-based; details: Dexamethasone, concentration not given; LPS 100 ng/mL; 24 h
Description: (§1) Cultures of the RAW264.7 mouse macrophage cell line were pre-treated with 10-Hydroxy-2-decenoic acid (QBA) for 1 hour prior to stimulation with lipopolysaccharide (LPS, 100 ng/mL). After 24 hours of incubation, interleukin […] (IL-1β) and tumor necrosis factor-α (TNFα) levels were determined by Luminex technology and cell numbers were measured using Alamar Blue. Results are given as a ratio of cytokine concentration/cell number.

[6] = tested on: RAW264.7 mouse macrophage cell line; assay: TNFα levels after LPS stimulation; assay type: cell-based; details: Dexamethasone, concentration not given; LPS 100 ng/mL; 24 h
Description: as §1

CC/C=C\C/C=C\C/C=C\C/C=C\C/C=C\C/C=C\CCC(=O)O [DHA, all-cis-docosa-4,7,10,13,16,19-hexaenoic acid]
Time (s) in Open Arm [1]: 32.4 s | Avg Wt ([2]; study day 0): 552.9 g | Avg Wt ([2]; study day 4): 568.8 g | Avg Wt ([2]; study day 11): 579.8 g | Avg Wt ([2]; study day 18): 592.4 g | Avg Wt ([2]; study day 25): 594.4 g | Avg Wt ([2]; study day 32): 600.5 g | Avg Wt ([2]; study day 39): 605.1 g | Avg Wt ([2]; study day 46): 607.2 g | Avg Wt ([2]; study day 53): 610.6 g | Avg Wt ([2]; study day 67): 616.2 g | Avg Wt ([2]; study day 74): 617.6 g | Avg Wt ([2]; study day 81): 619.7 g | Avg Wt ([2]; study day 88): 623.2 g | Avg Wt ([2]; study day 95): 624.8 g | Avg Wt ([2]; study day 102): 629.4 g | Avg Wt ([2]; study day 109): 632.9 g | Avg Wt ([2]; study day 116): 636.3 g | Avg Wt ([2]; study day 123): 631.2 g | Avg Wt ([2]; study day 137): 633.1 g | Avg Wt ([2]; study day 151): 634.6 g | % Change (Weight after Barnes maze) ([3]; behavior stress day 7): −0.76% | % Change (Weight after Barnes maze) ([3]; behavior stress day 14): −0.57% | % Change (Weight after Barnes maze) ([3]; behavior stress day 21): −0.88% | % Change (Weight after Barnes maze) ([3]; behavior stress day 28): −0.56% | % Change (Weight after Barnes maze) ([3]; behavior stress day 35): −0.23% | weight loss associated with the psychological stress ([3]; summary of Table 15): did not produce the same results | Avg Wt ([4]; study day 60): 614.6 g | Avg Wt ([4]; study day 130): 635.2 g | Avg Wt ([4]; study day 144): 632.5 g

C[C@@H]1C[C@H]2[C@@H]3CCC4=CC(=O)C=C[C@]4(C)[C@@]3(F)[C@@H](O)C[C@]2(C)[C@@]1(O)C(=O)CO [Dexamethasone, reference compound]
IL-1β (pg/mL)/Cell Numbers [5]: 0.0013 (pg/mL)/Cell Numbers | TNFα (pg/mL)/Cell Numbers [6]: 0.153 (pg/mL)/Cell Numbers
